Measured values reported in patent US20230372433A1, “NANOPARTICLE FOR ANTI-CANCER PEPTIDES AND USES THEREOF” (KING'S COLLEGE LONDON, priority 2020, published 2023).

Key:
[1] = system: HMLER-shEcad (human breast cancer stem cell); experiment: MTT cytotoxicity assay, HMLER-shEcad; type: cell-based; details: 72 hr, MTT; read-out: IC50 HMLER-shEcad
[2] = system: HEK293T (human embryonic kidney cell); experiment: MTT cytotoxicity assay, HEK293T; type: cell-based; details: 72 hr, MTT; read-out: IC50 HEK293T
[3] = system: U2OS (human bone osteosarcoma); experiment: MTT cytotoxicity assay, U2OS; type: cell-based; details: 72 hr
[4] = system: HMLER (human breast cancer bulk cell); experiment: MTT cytotoxicity assay, HMLER; type: cell-based; details: 72 hr, MTT; read-out: IC50 HMLER
[5] = system: MCF-10A (human breast epithelial cell); experiment: cells; details: read-out: IC50 MCF-10A; 72 hr, MTT
Excerpt: HMLER (human mammary endothelial cancer cells), HMLER-shEcad (human mammary endothelial cancer stem cells), and MCF-10A (healthy human mammary endothelial) cells were maintained in Mammary Epithelial Cell Growth Medium (MEGM) with supplements and growth factors: bovine pituitary extract (BPE), hydrocortisone, human epidermal growth factor (hEGF), insulin, and gentamicin/amphotericin-B. HEK293T (human embryonic kidney cell), and U2OS (homo sapiens bone osteosarcoma) cells were maintained in Dulbecco's Modified Eagle's Medium (DMEM) with a final concentration of 10% fetal bovine serum. The cells were grown in T75 flask at 310 K in a humidified atmosphere containing 5% CO2.
The colourimetric MTT (3-(4,5-dimethylthiazol-2-yl)-2,5-diphenyltetrazolium bromide) assay was used to determine the toxicity of the anti-cancer peptides and conventional anti-cancer drugs. 5×10^3 cells were seeded in each well of a 96-well microplate. The cells were incubated overnight. Elevated concentrations of the compounds (0, 0.1, 0.2, 0.4, 0.8, 1.6, 3.1, 6.3, 12.5, 25, 50 and 100 μM) were added and incubated for 72 hr with a total volume 200 μL. The stock solutions of the compounds were prepared as 5 mM solutions in DMSO and diluted using media or in pure water. The final concentration of DMSO in each well was either 0.5% or 0% and this amount was present in the untreated control. After 72 hr, 20 μL of a 4 mg/mL solution of MTT in PBS was added to each well, and the plate was incubated for an additional 4 hr. The MEGM/MTT mixture was aspirated and 100 μL of DMSO was added to dissolve the resulting purple formazan crystals. The absorbance of the solutions in each well was read at 550 nm wavelength. Absorbance values were normalized to either DMSO-containing or non DMSO-containing control wells and plotted as concentration of test compound versus % cell viability. ICso values were interpolated from the resulting dose dependent curves.
The peptides were screened against several different human cell lines and their cytotoxicity were determined. Cell lines utilised include MCF-10A (human breast epithelial cell), HMLER (human breast cancer bulk cell), HMLER-shEcad (human breast cancer stem cell), HEK293T (human embryonic kidney cell), and U2OS (human bone osteosarcoma).

[6] = ANTS/DPX liposome leakage assay, POPC vesicles; type: biochemical; details: 0.5 mM vesicles
Experimental: (§1) In brief, 0.5 mM POPC vesicles (grey) or POPC:POPG vesicles (ratio 3:1, black) were incubated with peptide concentrations of 0, 0.02, 0.04, 0.08, 0.16, 0.32, 0.64, 1.25, 2.5, 5, 10, and 20 μM in each A) hydrochloric acid-adjusted phosphate buffered saline (1X, pH 4.8) and B) phosphate buffered saline (1X, pH 7.4).
(§2) The lipids 1-palmitoyl-2-oleoyl-sn-glycero-3-phosphocholine (POPC), 1-palmitoyl-2-oleoyl-snglycero-3-phospho-(1′-rac-glycerol) (POPG) were purchased from Avanti Polar Lipids and dissolved in chloroform. Large unilamellar vesicles (LUVs) were produced by extrusion through 100 nm pore filter using an extruder and filters purchased from Avanti Polar Lipids.
(§3) 5 mM ANTS (8-aminonaphthalene-1,3,6-trisulfonic acid, disodium salt) and 12.5 mM DPX (p-xylene-bis-pyridinium bromide) were entrapped in 0.1 μm diameter extruded vesicles with lipids. Gel filtration chromatography using a Sephadex G-100 (GE Healthcare Life Sciences Inc) was used to remove external free ANTS/DPX from LUVs with entrapped contents. LUVs were diluted to 0.5 mM and used to measure the leakage activity by addition of aliquots of peptides. Leakage was measured after 3 h incubation. 10% Triton was used as the positive control to measure the maximum leakage of the vesicle. Fluorescence emission spectra were recorded using excitation and emission wavelength of 350 nm and 510 nm for ANTS/DPX using a BioTek Synergy H1 Hybrid Multi-Mode Reader.
(§4) Table 4 illustrates peptide concentration-induced 50 ANTS/DPX liposome leakage. 0.5 mM POPC and 3POPC/1POPG vesicles were fixed and incubated with titrated peptide concentration (0, 0.02, 0.04, 0.08, 0.16, 0.32, 0.64, 1.25, 2.5, 5, 10, and 20 μM) each in phosphate buffered saline (1X, pH 7.4) and hydrochloric acid-adjusted phosphate buffered saline (1X, pH 4.8). The values are shown as lipid per peptide. IN-terminus is free, C-terminus: —W—NH2.

[7] = Tryptophan fluorescent binding assay, 3POPC/1POPG vesicles; details: 50 μM peptide, PBS pH 7.4
Experimental: (§5) In brief, 50 μM peptides were fixed and incubated with titrated POPC vesicles (black) or 3POPC/1POPG vesicles (grey) at concentrations of 0, 12.5, 25, 50, 100, 250, 500, 1000, 2500, and 5000 μM in phosphate buffered saline (1X, pH 7.4). The lipid concentration that causes 50% peptide binding was determined using a tryptophan fluorescent binding assay and the values are shown as lipid per peptide.
as §2
(§6) Peptides (50 μM) and POPC/POPG LUVs (600 μM) were prepared in 10 mM phosphate buffer (pH 7.0). The solutions were incubated and measured after 60 minutes. Excitation was fixed at 280 nm (slit 9 nm) and emission was collected from 300 to 450 nm (slit 9 nm). The spectra were recorded using a Synergy H1 Hybrid Multi-Mode Reader (FIG. 3A) and Cytation™ 5 Cell Imaging Multi-Mode Reader (FIG. 2) from BioTek and were averaged over 3 scans.
(§7) Table 3 illustrates the lipid concentration-induced 50% peptide binding onto a liposome. 50 μM peptide was fixed and incubated with titrated lipid (POPC vesicles or 3POPC/1POPG vesicles) at concentrations of 0, 12.5, 25, 50, 100, 250, 500, 1000, 2500, and 5000 μM in phosphate buffered saline (1X, pH 7.4). The lipid concentration that causes 50% peptide binding was determined using tryptophan fluorescent binding assay and the values are shown as lipid per peptide. IN-terminus is free, C-terminus: —W—NH2.

[8] = ANTS/DPX liposome leakage assay, 3POPC/1POPG vesicles; type: biochemical; details: 0.5 mM vesicles
Experimental: as §1, §2, §3, §4

[9] = Tryptophan fluorescent binding assay, POPC vesicles; details: 50 μM peptide, PBS pH 7.4
Experimental: as §5, §2, §6, §7

| Sequence | IC50 [1] [µM] | IC50 [2] [µM] | IC50 [3] [µM] | IC50 [4] [µM] | IC50 [5] [µM] | Peptide Concentration-induced 50% ANTS/DPX leakage at pH 4.8 (L/P) POPC Vesicle [6] [L/P] | Peptide Concentration-induced 50% ANTS/DPX leakage at pH 7.4 (L/P) POPC Vesicle [6] [L/P] | Lipid Concentration-induced 50% Peptide Binding (L/P) 3POPC/1POPG Vesicle [7] [L/P] | Peptide Concentration-induced 50% ANTS/DPX leakage at pH 4.8 (L/P) 3POPC/1POPG Vesicle [8] [L/P] | Peptide Concentration-induced 50% ANTS/DPX leakage at pH 7.4 (L/P) 3POPC/1POPG Vesicle [8] [L/P] | Lipid Concentration-induced 50% Peptide Binding (L/P) POPC Vesicle [9] [L/P] |
| --- | --- | --- | --- | --- | --- | --- | --- | --- | --- | --- | --- |
| GLLDLLKLLLHAAG [DKH] | 2.8 ± 0.28 | 6.15 ± 1.34 | 21.1 ± 3.01 | 3.45 ± 0.07 | 7.05 ± 0.21 | 41 | 614 | 0.46 | 58 | 274 | 10.00 |
| GLLDLLKLLLKAAG [DKK] | 1.2 ± 0.14 | 3.4 ± 0.28 | 10.4 ± 1.7 | 1.95 ± 0.35 | 2.57 ± 0.52 | 47 | 463 | 6.88 | 227 | 156 | 2.75 |
| GLLELLHLLLKAAG [EHK] | 0.71 ± 0.13 | 5.35 ± 0.07 | 25 | 1.35 ± 0.35 | 3.6 ± 0.99 | 55 | 981 | 0.42 | 117 | 505 | 0.56 |
| GLLELLKLLLEAAG [EKE] | 1.3 ± 0.14 | 5.15 ± 0.21 | 8 ± 0.71 | 1.8 ± 0.28 | 8.8 | 75 | 738 | 1.63 | 438 | 657 | 2.75 |
| GLLELLKLLLHAAG [EKH] | 2.18 ± 0.31 | 6.65 ± 1.34 | 23.8 ± 0.81 | 2.75 ± 0.07 | 7.9 ± 0.42 | 55 | 608 | 0.19 | 88 | 365 | 0.75 |
| GLLELLKLLLKAAG [EKK] | 1.19 ± 0.4 | 3.35 ± 0.49 | 12.2 ± 1.84 | 1.72 ± 0.21 | 1.7 ± 0.11 | 60 | 1095 | 0.63 | 219 | 235 | 1.50 |
| GLLHLLELLLEAAG [HEE] | 4.95 ± 0.49 | 10.2 ± 0.2 | 47.5 ± 11 | 6.5 ± 0.71 | 58 ± 41 | 100 | 876 | 0.50 | 122 | 792 | 0.58 |
| GLLHLLHLLLKAAG [HHK] | 1.75 ± 0.21 | 5.25 ± 1.48 | 12.7 ± 1.91 | 3.15 ± 0.07 | 5.6 ± 0.14 | 149 | 1133 | 0.20 | 111 | 160 | 0.68 |
| GLLHLLKLLLEAAG [HKE] | 1.9 ± 0.42 | 5.15 ± 0.64 | 16 ± 0.78 | 2.7 ± 0.28 | 7.6 ± 0.42 | 173 | 692 | 0.25 | 94 | 365 | 0.75 |
| GLLHLLKLLLHAAG [HKH] | 3.1 ± 0.57 | 5.7 ± 0.99 | 18.9 ± 1.24 | 3.45 ± 0.21 | 6.1 | 193 | 1077 | 0.38 | 47 | 274 | 0.18 |
